Laboratory results: PubChem BioAssay (NCI)
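All cell lines were grown in 96-well plates and treated with compound for 48 hours. The concentration for full growth arrest is given as TGI.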

Experiments:
Assay in all cases: NCI anticancer screen, dose series, 48 h
[1] = tested on: SF-539 CNS
[2] = tested on: HCT-116 colon
[3] = tested on: SR leukemia
[4] = tested on: CAKI-1 renal
[5] = tested on: NCI/ADR-RES ovarian
[6] = tested on: T-47D breast
[7] = tested on: SF-295 CNS
[8] = tested on: SW-620 colon
[9] = tested on: SNB-19 CNS
[10] = tested on: NCI-H226 lung
[11] = tested on: M14 melanoma
[12] = tested on: HOP-62 NSCLC
[13] = tested on: SNB-75 CNS
[14] = tested on: HOP-92 NSCLC
[15] = tested on: UO-31 renal
[16] = tested on: NCI-H23 lung
[17] = tested on: DU-145 prostate
[18] = tested on: A498 renal
[19] = tested on: TK-10 renal
[20] = tested on: MDA-MB-435
[21] = tested on: SF-268 CNS
[22] = tested on: SN12C renal
[23] = tested on: KM12 colon
[24] = tested on: ACHN renal
[25] = tested on: MDA-N
[26] = tested on: EKVX NSCLC
[27] = tested on: SK-MEL-28 melanoma
[28] = tested on: LOX IMVI melanoma
[29] = tested on: MOLT-4 leukemia
[30] = tested on: U251 CNS
[31] = tested on: K-562 leukemia
[32] = tested on: SK-OV-3 ovarian
[33] = tested on: OVCAR-8 ovarian
[34] = tested on: NCI-H460 lung
[35] = tested on: PC-3 prostate
[36] = tested on: A549 NSCLC
[37] = tested on: HT29 colon
[38] = tested on: HCT-15 colon
[39] = tested on: SK-MEL-5 melanoma
[40] = tested on: SK-MEL-2 melanoma
[41] = tested on: RPMI-8226 leukemia
[42] = tested on: IGROV1 ovarian
[43] = tested on: COLO 205 colon
[44] = tested on: OVCAR-5 ovarian
[45] = tested on: MCF7 breast
[46] = tested on: UACC-62 melanoma
[47] = tested on: CCRF-CEM leukemia
[48] = tested on: 786-0 renal
[49] = tested on: HL-60(TB) leukemia
[50] = tested on: MDA-MB-231 breast
[51] = tested on: BT-549 breast
[52] = tested on: UACC-257 melanoma
[53] = tested on: OVCAR-3 ovarian
[54] = tested on: HS 578T breast

Question: With NC(=S)Nc1[nH]c(=S)nc2[nH]ccc12 as the molecule, how does the TGI [1] read?
Answer: Its TGI is greater than 100 µM.

Question: And the TGI [2]?
Answer: The TGI was greater than 100 µM.

Question: What about the TGI [3] of the same molecule?
Answer: The TGI was greater than 100 µM.

Question: What about the TGI [4] of the same molecule?
Answer: Its TGI is greater than 100 µM.

Question: What about the TGI [5] of the same molecule?
Answer: The TGI was greater than 100 µM.

Question: And the TGI [6]?
Answer: The TGI was greater than 100 µM.

Question: And the TGI [7]?
Answer: The TGI was greater than 100 µM.

Question: What about the TGI [8] of the same molecule?
Answer: Its TGI is greater than 100 µM.

Question: And the TGI [9]?
Answer: The TGI was greater than 100 µM.

Question: And the TGI [10]?
Answer: Its TGI is greater than 100 µM.

Question: And the TGI [11]?
Answer: The TGI was greater than 100 µM.

Question: What about the TGI [12] of the same molecule?
Answer: Its TGI is greater than 100 µM.

Question: What about the TGI [13] of the same molecule?
Answer: Its TGI is 62.9 µM.

Question: What about the TGI [14] of the same molecule?
Answer: Its TGI is greater than 100 µM.

Question: What about the TGI [15] of the same molecule?
Answer: Its TGI is greater than 100 µM.

Question: What about the TGI [16] of the same molecule?
Answer: Its TGI is greater than 100 µM.

Question: And the TGI [17]?
Answer: Its TGI is greater than 100 µM.

Question: And the TGI [18]?
Answer: Its TGI is greater than 100 µM.

Question: What about the TGI [19] of the same molecule?
Answer: The TGI was greater than 100 µM.

Question: And the TGI [20]?
Answer: The TGI was greater than 100 µM.

Question: And the TGI [21]?
Answer: Its TGI is greater than 100 µM.

Question: What about the TGI [22] of the same molecule?
Answer: The TGI was greater than 100 µM.

Question: What about the TGI [23] of the same molecule?
Answer: The TGI was greater than 100 µM.

Question: What about the TGI [24] of the same molecule?
Answer: The TGI was greater than 100 µM.

Question: And the TGI [25]?
Answer: The TGI was greater than 100 µM.

Question: What about the TGI [26] of the same molecule?
Answer: The TGI was greater than 100 µM.

Question: What about the TGI [27] of the same molecule?
Answer: Its TGI is greater than 100 µM.

Question: What about the TGI [28] of the same molecule?
Answer: The TGI was greater than 100 µM.

Question: And the TGI [29]?
Answer: Its TGI is greater than 100 µM.

Question: What about the TGI [30] of the same molecule?
Answer: Its TGI is greater than 100 µM.

Question: What about the TGI [31] of the same molecule?
Answer: Its TGI is greater than 100 µM.

Question: What about the TGI [32] of the same molecule?
Answer: Its TGI is greater than 100 µM.

Question: And the TGI [33]?
Answer: The TGI was greater than 100 µM.

Question: What about the TGI [34] of the same molecule?
Answer: Its TGI is greater than 100 µM.

Question: And the TGI [35]?
Answer: The TGI was greater than 100 µM.

Question: What about the TGI [36] of the same molecule?
Answer: The TGI was greater than 100 µM.

Question: And the TGI [37]?
Answer: The TGI was greater than 100 µM.

Question: And the TGI [38]?
Answer: Its TGI is greater than 100 µM.

Question: And the TGI [39]?
Answer: Its TGI is greater than 100 µM.

Question: What about the TGI [40] of the same molecule?
Answer: Its TGI is greater than 100 µM.

Question: And the TGI [41]?
Answer: Its TGI is greater than 100 µM.

Question: What about the TGI [42] of the same molecule?
Answer: Its TGI is greater than 100 µM.

Question: And the TGI [43]?
Answer: The TGI was greater than 100 µM.

Question: And the TGI [44]?
Answer: Its TGI is greater than 100 µM.

Question: And the TGI [45]?
Answer: Its TGI is greater than 100 µM.

Question: What about the TGI [46] of the same molecule?
Answer: The TGI was greater than 100 µM.

Question: What about the TGI [47] of the same molecule?
Answer: Its TGI is greater than 100 µM.

Question: And the TGI [48]?
Answer: Its TGI is greater than 100 µM.

Question: What about the TGI [49] of the same molecule?
Answer: Its TGI is 53.2 µM.

Question: What about the TGI [50] of the same molecule?
Answer: The TGI was greater than 100 µM.

Question: What about the TGI [51] of the same molecule?
Answer: The TGI was greater than 100 µM.

Question: And the TGI [52]?
Answer: The TGI was greater than 100 µM.

Question: What about the TGI [53] of the same molecule?
Answer: The TGI was 94.3 µM.

Question: What about the TGI [54] of the same molecule?
Answer: The TGI was greater than 100 µM.
